# Data reported in PubChem BioAssay (NCI).
# Several values for one entry are separate records, joined by “and”; a condition that tells them apart may be missing. Equal values may be shown once.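 Method: 48-hour compound exposure of cells in 96-well plates, five concentrations, linear interpolation of endpoints. Here, GI50 denotes the concentration required for 50% inhibition of growth. At the TGI there is no net growth.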
# Assays:
# Experiment in all cases: DTP human tumour cell line panel, 48 h
# UACC-62 melanoma = tested on: UACC-62 melanoma
# OVCAR-3 ovarian = tested on: OVCAR-3 ovarian
# MOLT-4 leukemia = tested on: MOLT-4 leukemia
# OVCAR-5 ovarian = tested on: OVCAR-5 ovarian
# UO-31 renal = tested on: UO-31 renal
# SK-MEL-5 melanoma = tested on: SK-MEL-5 melanoma
# A498 renal = tested on: A498 renal
# NCI-H522 lung = tested on: NCI-H522 lung
# HOP-92 NSCLC = tested on: HOP-92 NSCLC
# MALME-3M melanoma = tested on: MALME-3M melanoma
structure (smiles),measurement,setting,value
COc1cccc(/C=C2\CCC(C)(CN(C)C)C2=O)c1 (stereo not given),TGI,UACC-62 melanoma,> 100 µM
same,TGI,OVCAR-3 ovarian,> 100 µM
same,TGI,MOLT-4 leukemia,> 100 µM
same,TGI,OVCAR-5 ovarian,> 100 µM
same,TGI,UO-31 renal,> 100 µM
same,TGI,SK-MEL-5 melanoma,> 100 µM
same,TGI,A498 renal,> 100 µM
same,TGI,NCI-H522 lung,91.6 µM
same,TGI,HOP-92 NSCLC,> 100 µM
same,TGI,MALME-3M melanoma,> 100 µM
C=CCO/N=C/c1cc(NC(=S)c2ccoc2C)ccc1Cl,TGI,UACC-62 melanoma,35.5 µM
same,TGI,OVCAR-3 ovarian,24.3 µM
same,TGI,MOLT-4 leukemia,29.4 µM
same,TGI,OVCAR-5 ovarian,33.8 µM
same,TGI,UO-31 renal,19.4 µM
same,TGI,SK-MEL-5 melanoma,27.6 µM
same,TGI,A498 renal,58.6 µM
same,TGI,NCI-H522 lung,23.7 µM
same,TGI,HOP-92 NSCLC,42.3 µM
same,TGI,MALME-3M melanoma,31.3 µM
C[n+]1c2ccccc2cc2c(CNC(CCCN=C(N)N)C(=O)O)cccc21 (stereo not given),TGI,UACC-62 melanoma,2.32 µM
same,GI50,OVCAR-3 ovarian,1.57 µM
same,TGI,OVCAR-3 ovarian,6.36 µM and 4.58 µM
same,TGI,MOLT-4 leukemia,0.852 µM
same,GI50,OVCAR-5 ovarian,14.4 µM
same,TGI,OVCAR-5 ovarian,27.4 µM
same,GI50,UO-31 renal,10.2 µM
same,TGI,UO-31 renal,2.43 µM and 22 µM
same,GI50,SK-MEL-5 melanoma,5.33 µM
same,TGI,SK-MEL-5 melanoma,17.8 µM
same,TGI,A498 renal,8.7 µM
same,GI50,NCI-H522 lung,0.157 µM
same,TGI,NCI-H522 lung,2.78 µM and 0.342 µM
same,GI50,HOP-92 NSCLC,0.327 µM
same,TGI,HOP-92 NSCLC,0.991 µM
same,GI50,MALME-3M melanoma,3.48 µM
same,TGI,MALME-3M melanoma,4.54 µM and 10.7 µM
CC1(C)CC[C@H](C2=CC(=O)c3c(O)ccc(O)c3C2=O)O1,GI50,UACC-62 melanoma,2.36 µM and 1.3 µM and 0.54 µM
same,TGI,UACC-62 melanoma,5.28 µM and 2.66 µM and 1.53 µM
same,GI50,OVCAR-3 ovarian,2.23 µM and 1.64 µM and 0.669 µM
same,TGI,OVCAR-3 ovarian,4.87 µM and 3.02 µM and 1.61 µM
same,GI50,MOLT-4 leukemia,0.487 µM and 0.16 µM and 0.137 µM
same,GI50,OVCAR-5 ovarian,4.43 µM and 2 µM and 1.91 µM
same,TGI,OVCAR-5 ovarian,8.24 µM and 3.56 µM and 3.57 µM
same,GI50,UO-31 renal,1.39 µM and 1.69 µM and 0.391 µM
same,TGI,UO-31 renal,4 µM and 3.06 µM and 0.838 µM
same,GI50,SK-MEL-5 melanoma,1.65 µM and 1.36 µM and 0.464 µM
same,TGI,SK-MEL-5 melanoma,4.08 µM and 2.68 µM and 1.22 µM
same,GI50,A498 renal,6.81 µM and 2.57 µM and 1.71 µM
same,TGI,A498 renal,13.6 µM and 6.05 µM and 3.58 µM
same,GI50,NCI-H522 lung,0.55 µM and 0.0942 µM
same,TGI,NCI-H522 lung,1.23 µM and 0.248 µM
same,GI50,HOP-92 NSCLC,1.75 µM and 1.14 µM and 0.263 µM
same,TGI,HOP-92 NSCLC,3.39 µM and 2.5 µM and 0.725 µM
same,GI50,MALME-3M melanoma,1.15 µM and 1.26 µM and 0.201 µM
same,TGI,MALME-3M melanoma,2.76 µM and 2.53 µM and 0.471 µM
COCCOCCOCc1n(Cc2ccc3ccccc3n2)c2ccccc2[n+]1Cc1ccc2ccccc2c1,GI50,UACC-62 melanoma,0.364 µM
same,TGI,UACC-62 melanoma,1.36 µM
same,GI50,OVCAR-3 ovarian,0.358 µM
same,TGI,OVCAR-3 ovarian,1.52 µM
same,GI50,MOLT-4 leukemia,0.47 µM
same,TGI,MOLT-4 leukemia,2.52 µM
same,GI50,OVCAR-5 ovarian,0.557 µM
same,TGI,OVCAR-5 ovarian,7.43 µM
same,GI50,UO-31 renal,2.29 µM
same,TGI,UO-31 renal,11.2 µM
same,GI50,SK-MEL-5 melanoma,0.357 µM
same,TGI,SK-MEL-5 melanoma,1.16 µM
same,GI50,A498 renal,0.627 µM
same,TGI,A498 renal,2.83 µM
same,GI50,NCI-H522 lung,0.248 µM
same,TGI,NCI-H522 lung,0.936 µM
same,GI50,HOP-92 NSCLC,0.207 µM
same,TGI,HOP-92 NSCLC,0.718 µM
same,GI50,MALME-3M melanoma,0.275 µM
same,TGI,MALME-3M melanoma,0.9 µM
Cl[Si]1(Cl)Oc2ccccc2O[Si](Cl)(Cl)Oc2ccccc2O1,TGI,UACC-62 melanoma,20.9 µM
same,TGI,OVCAR-3 ovarian,> 100 µM
same,TGI,MOLT-4 leukemia,42.8 µM
same,TGI,OVCAR-5 ovarian,> 100 µM
same,TGI,SK-MEL-5 melanoma,27 µM
same,TGI,A498 renal,> 100 µM
same,TGI,NCI-H522 lung,5.4 µM
same,TGI,HOP-92 NSCLC,89.6 µM
same,TGI,MALME-3M melanoma,> 100 µM
C[C@H](Cn1ncnn1)Nc1ncc2cc(Oc3ccc(F)cc3F)c(=O)n(C)c2n1,GI50,UACC-62 melanoma,> 25 µM
same,TGI,UACC-62 melanoma,> 25 µM
same,GI50,OVCAR-3 ovarian,> 25 µM
same,TGI,OVCAR-3 ovarian,> 25 µM
same,GI50,MOLT-4 leukemia,> 25 µM
same,TGI,MOLT-4 leukemia,> 25 µM
same,GI50,OVCAR-5 ovarian,> 25 µM
same,TGI,OVCAR-5 ovarian,> 25 µM
same,GI50,UO-31 renal,> 25 µM
same,TGI,UO-31 renal,> 25 µM
same,GI50,SK-MEL-5 melanoma,> 25 µM
same,TGI,SK-MEL-5 melanoma,> 25 µM
same,GI50,A498 renal,> 25 µM
same,TGI,A498 renal,> 25 µM
same,GI50,NCI-H522 lung,> 25 µM
same,TGI,NCI-H522 lung,> 25 µM
same,GI50,HOP-92 NSCLC,3.96 µM
same,TGI,HOP-92 NSCLC,> 25 µM
same,GI50,MALME-3M melanoma,> 25 µM
same,TGI,MALME-3M melanoma,> 25 µM
CC(=O)OC1COC(n2c(=S)n(-c3ccccc3)c(=O)c3cc(Br)ccc32)C(OC(C)=O)C1OC(C)=O (stereo not given),TGI,UACC-62 melanoma,> 100 µM
same,TGI,OVCAR-3 ovarian,> 100 µM
same,TGI,MOLT-4 leukemia,> 100 µM
same,TGI,OVCAR-5 ovarian,> 100 µM
same,TGI,UO-31 renal,> 100 µM
same,TGI,SK-MEL-5 melanoma,> 100 µM
same,TGI,A498 renal,> 100 µM
same,TGI,NCI-H522 lung,> 100 µM
same,TGI,HOP-92 NSCLC,55.5 µM
same,TGI,MALME-3M melanoma,> 100 µM
